Assay results from patent US4632928A, “Pyrazole derivatives with an ergoline skeleton, their acid addition salts, and a process for the preparation thereof” (Richter Gedeon Vegyeszeti Gyar R.T., priority 1983, dated 1986).
Structures can show the parent of a compound that is named as a salt. Where two headings read alike, the source gives them in different places.

Assays:
PGF2alpha receptor [1] = molecular target: T1, PGF2alpha receptor (Rattus norvegicus, UniProt P43118); test: PGF2alpha antagonist effect in vitro in isolated rat uterus; details: compound 2 × 10^-6 M, PGF2alpha 1.4 × 10^-7 M, read-out: Percentual inhibition at concentrations of 2 × 10^-6 M against 1.4 × 10^-7 M PGF2alpha
T1 construct: in the isolated rat uterus; from tissue; host or cells: isolated rat uterus
T1 sequence (P43118 whole entry): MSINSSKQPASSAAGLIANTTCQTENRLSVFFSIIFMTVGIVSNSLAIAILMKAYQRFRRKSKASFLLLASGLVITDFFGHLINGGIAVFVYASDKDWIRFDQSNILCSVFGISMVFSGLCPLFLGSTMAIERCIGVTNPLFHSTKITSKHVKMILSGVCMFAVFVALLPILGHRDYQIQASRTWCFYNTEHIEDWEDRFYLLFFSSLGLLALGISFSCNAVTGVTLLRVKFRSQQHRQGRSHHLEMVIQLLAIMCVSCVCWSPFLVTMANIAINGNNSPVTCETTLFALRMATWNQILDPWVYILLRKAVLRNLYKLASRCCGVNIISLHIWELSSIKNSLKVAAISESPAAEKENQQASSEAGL
Description: (§1) In vitro, in the isolated rat uterus (Table 1), and in vivo in rabbits under urethane anesthesis (Table 2) they antagonize the uterine contraction inducing activity of PGF2alpha. The competitive antagonist effect of the compounds is selective and protracted, while it fails to influence the uterine contraction inducing effect of other endogeneous compounds, i.e. oxytocin. This would enable their use as spasmolytic agents of new mechanism of action in the field of obstetrics and gynecology for the treatment of dysmenorrhea and anovulation, and the prevention of imminent and habitual abortus and miscarriage.
PGF2alpha antagonist effect of the compounds of general
formula (I) in vitro in isolated rat uterus
Method: 1. J. H. Gaddum and K. A. Hammed:
2. O. Arunlakshana and H. O Schild:
Compound Percentual inhibition at concentrations

PGF2alpha receptor [2] = test: In vivo PGF2alpha antagonist effect in urethane anesthesized rabbits; details: PGF2alpha 6.25 μg/kg iv; for Duration of the effect: rabbits; for Inhibition: urethane anesthesized rabbits
Description: as §1
In vivo PGF2alpha antagonist effect of pyrazole deriva-
tives of general formula (I) in urethane (1.2 g/kg iv)
1. D. F. Hawkins: Agents Acting on the Uterus.
In: Evaluation of Drug Activities: Pharma-
cometrics. Edited by R. Lawrence and A. L.
Bacharach. Academic Press, London, p. 680 (1964)
2. A. R. Cushny: J. Physiol. 35, 1 (1906)
PGF2alpha standard dose: 6.25 μg/kg iv

[3] = Acute toxicity in CFLP mice (Probite analysis according to Litchfield-Wilcoxon); details: mouse, in vivo
Description: Acute toxicity of pyrazole derivatives of
general formula (I) in CFLP mice
Method: Probite analysis according to Litchfield-
Wilcoxon [J. Pharm. Exp. Ther. 96, 99 (1949)]

uterine musculature = details: known compounds with ergoline skeleton; cited from earlier work

| Molecule | inhibition at 2 µM (PGF2alpha receptor [1]) | LD50 ([3]; ip, read-out: LD50 ip) | LD50 ([3]; po, read-out: LD50 po) | also measured |
| --- | --- | --- | --- | --- |
| Cc1nn(C[C@@H]2C=C3c4cccc5[nH]cc(c45)C[C@H]3N(C)C2)c2c1CCC2 [Example 1, 8-beta-[3(5)-Methyl-cyclopentano/4,5(3,4)/pyrazol-1-yl-methylene]-6-methyl-ergol-9-ene] | 70% | 3100 mg/kg | 2450 mg/kg | Duration of the effect (PGF2alpha receptor [2]; 0.3 mg/kg intraduodenal): > 180 min; Inhibition (PGF2alpha receptor [2]; 0.3 mg/kg intraduodenal): 38%; Duration of the effect (PGF2alpha receptor [2]; 1.0 mg/kg intraduodenal): > 180 min; Inhibition (PGF2alpha receptor [2]; 1.0 mg/kg intraduodenal): 49% |
| Cc1nn(C[C@@H]2C=C3c4cccc5c4c(cn5C)C[C@H]3N(C)C2)c2c1CCC2 [Example 2, 8-beta-[3(5)-Methyl-cyclopentane/4,5(3,4)/pyrazol-1-yl-methylene]-1,6-dimethyl-ergol-9-ene hydrogen maleinate] | 58% | > 100 mg/kg | > 100 mg/kg | – |
| Cc1nn(C[C@@H]2C[C@@H]3c4cccc5[nH]cc(c45)C[C@H]3N(C)C2)c2c1CCC2 [Example 4, 8-beta-[3(5)-Methyl-cyclopentano/4,5(3,4)/pyrazol-1-yl-methylene]-6-methyl-ergoline] | – | > 100 mg/kg | > 100 mg/kg | – |
| CN1C[C@H](Cn2nc(-c3cccnc3)c3c2CCC3)C=C2c3cccc4[nH]cc(c34)C[C@H]21 [Example 5, 8-beta-[3(5)-(3-Pyridyl)-cyclopentano/4,5(3,4)/pyrazol-1-yl-methylene]-6-methyl-ergol-9-ene] | 46% | > 100 mg/kg | > 100 mg/kg | – |
| Cc1nn(C[C@@H]2C=C3c4cccc5[nH]cc(c45)C[C@H]3N(C)C2)c2c1C(=O)CC2 [Example 6, 8-beta-[3(6)-Methyl-4(5)-oxo-cyclopentano/4,5(3,4)/pyrazol-1-yl-methylene]-6-methyl-ergol-9-ene] | – | > 200 mg/kg | 1000 mg/kg | – |
| Cc1nn(C[C@@H]2C=C3c4cccc5[nH]cc(c45)C[C@H]3N(C)C2)c2c1C(O)CC2 (stereo partly drawn) [Example 7, 8-beta-[3(6)-Methyl-4(5)-hydroxy-cyclopentano/4,5(3,4)/pyrazol-1-yl-methylene]-6-methyl-ergol-9-ene] | – | > 100 mg/kg | > 100 mg/kg | – |
| Cc1nn(C[C@@H]2C=C3c4cccc5[nH]cc(c45)C[C@H]3N(C)C2)c2c1C(=NO)CC2 [Example 8, 8-beta-[3(6)-Methyl-4(5)-hydroxy-imino-cyclopentano/4,5(3,4)/pyrazol-1-yl-methylene]-6-methyl-ergol-9-ene] | – | > 100 mg/kg | > 100 mg/kg | – |
| Cc1nn(C[C@@H]2C=C3c4cccc5[nH]cc(c45)C[C@H]3N(C)C2)c2c1CCCC2 [Example 9, 8-beta-[3(5)-Methyl-cyclohexano/4,5(3,4)/pyrazol-1-yl-methylene]-6-methyl-ergol-9-ene] | 40% | > 100 mg/kg | > 100 mg/kg | Duration of the effect (PGF2alpha receptor [2]; 3.0 mg/kg intraduodenal): > 180 min; Inhibition (PGF2alpha receptor [2]; 3.0 mg/kg intraduodenal): 58%; Duration of the effect (PGF2alpha receptor [2]; 10.0 mg/kg intraduodenal): > 180 min; Inhibition (PGF2alpha receptor [2]; 10.0 mg/kg intraduodenal): 68% |
| Cc1nn(C[C@@H]2C=C3c4cccc5[nH]cc(c45)C[C@H]3N(C)C2)c2c1C(=O)CC(C)(C)C2 [Example 10] | 66% | > 100 mg/kg | > 100 mg/kg | Duration of the effect (PGF2alpha receptor [2]; 20.0 mg/kg intraduodenal): 90 min; Inhibition (PGF2alpha receptor [2]; 20.0 mg/kg intraduodenal): 42% |
| Cc1nn(C[C@@H]2C=C3c4cccc5[nH]cc(c45)C[C@H]3N(C)C2)c2c1C(=NO)CC(C)(C)C2 [Example 11, 8-beta-[3(7),6(4)-Trimethyl-4(6)-hydroxy-imino-cyclohexano/4,5(3,4)/pyrazol-1-yl-methylene]-6-methyl-ergol-9-ene] | 80% | > 100 mg/kg | > 100 mg/kg | Duration of the effect (PGF2alpha receptor [2]; 20.0 mg/kg intraduodenal): > 120 min; Inhibition (PGF2alpha receptor [2]; 20.0 mg/kg intraduodenal): 72% |
| C=CCc1c(C)nn(C[C@@H]2C=C3c4cccc5[nH]cc(c45)C[C@H]3N(C)C2)c1C [Example 14, 8-beta-(3,5-Dimethyl-4-allyl-pyrazol-1-yl-methylene)-6-methyl-ergol-9-ene] | 77% | > 100 mg/kg | > 100 mg/kg | – |
| CCOC(=O)c1nn(C[C@@H]2C=C3c4cccc5[nH]cc(c45)C[C@H]3N(C)C2)c(O)c1C [Example 15, 8-beta-(3-Carbethoxy-4-methyl-5-hydroxy-pyrazol-1-yl-methylene)-6-methyl-ergol-9-ene] | 40% | > 100 mg/kg | > 100 mg/kg | – |
| Cc1cc(-c2ccccn2)nn1C[C@@H]1C=C2c3cccc4[nH]cc(c34)C[C@H]2N(C)C1 [Example 16, 8-beta-[3(5)-/2-Pyridyl/-5(3)-methyl-pyrazol-1-yl-methylene]-6-methyl-ergol-9-ene] | 18% | > 100 mg/kg | > 100 mg/kg | – |
| Cc1cc(-c2ccccn2)nn1C[C@@H]1C[C@@H]2c3cccc4[nH]cc(c34)C[C@H]2N(C)C1 [Example 17, 8-beta-[3(5)-/2-Pyridyl/-5(3)-methyl-pyrazol-1-yl-methylene]-6-methyl-ergoline] | 44% | > 100 mg/kg | > 100 mg/kg | Duration of the effect (PGF2alpha receptor [2]; 10.0 mg/kg intraduodenal): 120 min; Inhibition (PGF2alpha receptor [2]; 10.0 mg/kg intraduodenal): 55%; Duration of the effect (PGF2alpha receptor [2]; 20.0 mg/kg intraduodenal): > 150 min; Inhibition (PGF2alpha receptor [2]; 20.0 mg/kg intraduodenal): 77% |
| CC(=O)c1c(C)nn(C[C@@H]2C=C3c4cccc5[nH]cc(c45)C[C@H]3N(C)C2)c1C [Example 18, 8-beta-[3,5-Dimethyl-4-(1-oxo-ethyl)-pyrazol-1-yl-methylene]-6-methyl-ergol-9-ene] | – | > 100 mg/kg | > 100 mg/kg | – |
| Cc1nn(C[C@@H]2C=C3c4cccc5[nH]cc(c45)C[C@H]3N(C)C2)c2c1CCC2 [Hydrogen-fumarate of 1, 8-beta-[3(5)-methyl-cyclopentano/4,5(3,4)/pyrazol-1-yl-methylene]-6-methyl-ergol-9-ene hydrogen fumarate] | – | – | – | Duration of the effect (PGF2alpha receptor [2]; 3.0 mg/kg intraduodenal): > 180 min; Inhibition (PGF2alpha receptor [2]; 3.0 mg/kg intraduodenal): 63% |
| CC(C)C[C@H]1C(=O)N2CCC[C@H]2[C@]2(O)O[C@](NC(=O)[C@@H]3C=C4c5cccc6[nH]c(Br)c(c56)C[C@H]4N(C)C3)(C(C)C)C(=O)N12 [bromocryptine] | – | – | – | effect on the uterine musculature (uterine musculature): uterine relaxants |
| CN1C[C@H](C(=O)N[C@]2(C)O[C@@]3(O)[C@@H]4CCCN4C(=O)[C@H](Cc4ccccc4)N3C2=O)C[C@@H]2c3cccc4[nH]cc(c34)C[C@H]21 [dihydroergotamine] | – | – | – | effect on the uterine musculature (uterine musculature): uterine relaxants |
| C[C@@H](CO)NC(=O)[C@@H]1C=C2c3cccc4[nH]cc(c34)C[C@H]2N(C)C1 [ergometrin] | – | – | – | effect on the uterine musculature (uterine musculature): inducing uterine contraction |
| CN1C[C@H](C(=O)N[C@]2(C)O[C@@]3(O)[C@@H]4CCCN4C(=O)[C@H](Cc4ccccc4)N3C2=O)C=C2c3cccc4[nH]cc(c34)C[C@H]21 [ergotamine] | – | – | – | effect on the uterine musculature (uterine musculature): inducing uterine contraction |
| CC[C@@H](CO)NC(=O)[C@@H]1C=C2c3cccc4[nH]cc(c34)C[C@H]2N(C)C1 [methylergometrin] | – | – | – | effect on the uterine musculature (uterine musculature): inducing uterine contraction |
| hydergine | – | – | – | effect on the uterine musculature (uterine musculature): uterine relaxants |
